Test results from US7998940B2, “Aptamers to von Willebrand factor and their use as thrombotic disease therapeutics” (Archemix Corp., priority 2004, dated 2011).
Like-named read-outs stand apart in the source and are kept apart here. Oligonucleotides are written 5' to 3', each unit as a sugar letter and its base; * is a phosphorothioate linkage, no mark a phosphodiester; rarer units and linkages stand in square brackets, end groups in braces. Plain capitals give the bases only. {PEG20K-NH2} = 20 kDa PEG attached to the 5' nucleotide via an amine linker; [invdT] = inverted (3'-3') thymidine; d = 2'-deoxy (DNA); r = 2'-OH (RNA)

What was measured:
[1] = biological target: human vWF A1 domain (SEQ ID NO 5) (Homo sapiens, UniProt P04275, T1381A); assay: dot blot KD determination, human vWF A1 domain; details: read-out: Human vWF A1 domain KD
[2] = system: rabbit vWF domain A1 binding to lyophilized platelets; assay: Rabbit von Willebrand Factor domain A1 platelet binding assay (FACS); format: cell-based; details: 4 nM rabbit A1 vWF, lyophilized platelets, botrocetin
Experimental: Botrocetin induces the binding of the A1 domain of vWF to platelets, as well as the full length protein. It was determined by the inventors that 6-Histidine-tagged rabbit A1 domain vWF purified protein could be induced to bind to human lyophilized platelets with botrocetin. Rabbit A1 binding to platelets is measured with an anti-poly-His antibody followed by incubation with a phycoerythrin conjugated secondary antibody. The degree of binding can be quantified by flow cytometric analysis. The ability of aptamers to block the binding of rabbit A1 to human fixed platelets was correlated with decreased fluorescence signal.
The ability of aptamers of the invention to block rabbit vWF domain A1 binding to lyophilized platelets was also assessed by flow cytometric analysis. Titrations of aptamers (zero, 0.1 nM to 1000 nM) were preincubated briefly with 4 nM of rabbit A1 vWF in FACS buffer (PBS plus 0.5% bovine serum albumin) at room temperature in a volume of 50 uL. Another 50 uL containing 5 uL of lyophilized platelets plus 1 uL of 0.1 U/uL of botrocetin in FACS buffer was added to aptamer/vWF. This reaction was allowed to proceed for 15 minutes at 37 degrees C. after which 200 uL of FACS buffer was added. Platelets were collected by a 6 minute spin at 1470 RCF and the supernatant was discarded. The pellets were resuspended in 100 uL of FACS buffer containing a 1:200 dilution of anti-Penta-HIS-biotin conjugate antibody and were incubated at room temperature for 30 minutes. After the dilution with 200 uL of FACS buffer, the platelets were spun at 1470 RCF for 6 minutes, and the supernatant was discarded. The pellets were resuspended in a 1:100 solution of anti-IgG-PE antibody and were incubated in the dark for 30 minutes at room temperature. The entire 100 uL was diluted into 200 uL of FACS buffer and analyzed immediately by flow cytometric analysis in the FACSCAN. Contaminating debris was eliminated from the analysis by drawing a gate around the population of single and aggregated platelets and collecting data from 10000 events. Median fluorescent intensity (“MedFI”) readings (which are generally equivalent to the MFI readings, described in Example 3a above, for comparative purposes) were quantified for each sample analyzed by flow cytometry. Background MedFI was subtracted from all data points. Percent inhibition was reported by calculating the percent value of binding of […] to platelets in the presence of aptamer at a given concentration relative to binding in the absence of any aptamer (see FIG. 7). IC50 values were determined by fitting the percent inhibition of vWF binding to platelets as a function of aptamer concentration to the equation: % inhibition=% inhibitionmax/(1+IC50/aptamer conc.)

[3] = system: full length human vWF (SEQ ID NO 7); assay: dot blot KD determination and extent of binding, full length human vWF; details: for Kd: read-out: Full length human vWF KD;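 as to all read-outs here: dot blot binding of aptamers to full length human vWF across a protein titration, incubated 30 minutes at room temperature in 1x DPBS with BSA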
[4] = system: rabbit vWF A1 domain (SEQ ID NO 6); assay: dot blot KD determination, rabbit vWF A1 domain; format: binding
Experimental: A 12 point protein titration was used in the dot blot assay (300 nM, 100 nM, 30 nM, 10 nM, 3 nM, 1 nM, 300 pM, 100 pM, 30 pM, 10 pM, 3 pM, 0 pM) in 1×DPBS plus 0.1 mg/mL BSA at room temperature for 30 minutes.

[5] = system: full length human vWF binding to lyophilized platelets; assay: Full length human von Willebrand Factor platelet binding assay (FACS); format: cell-based; details: 5 nM full length human vWF, lyophilized platelets, botrocetin
Method in brief: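 Aptamer titrations (0.1–1000 nM) pre-incubated with 5 nM full-length human vWF, then added to lyophilized platelets plus botrocetin for 15 min at 37 °C in PBS/0.5% BSA. Bound vWF detected by anti-vWF then FITC secondary antibody via flow cytometry MFI; % inhibition versus no-aptamer binding fitted for IC50.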

[6] = system: botrocetin induced platelet aggregation; assay: Inhibition of botrocetin induced platelet aggregation (BIPA) in human PRP; format: cell-based; details: for ≦200 nM aptamer gives >90% blocking in BIPA at 6 minutes: botrocetin induced platelet aggregation; for IC90: human platelet rich plasma
Experimental: In platelet rich plasma isolated from fresh human blood, botrocetin induces platelet aggregation via vWF. Platelet aggregate formation can be measured optically as an increase in % light transmittance on a Chronolog Model 490-4D Aggregometer because aggregation of platelets clarifies the plasma. Aptamers of the invention were analyzed for their ability to inhibit botrocetin induced platelet aggregation (“BIPA”) in human blood. An aptamer of the invention was considered to be active if it could prevent aggregate formation for six minutes post botrocetin addition.
In order to determine the activity of aptamers on live human platelets, BIPA assays were done using freshly prepared platelet rich plasma. Blood was obtained from healthy human donors who had not taken NSAIDS for at least five days. […] Collected blood was pooled into 15 mL conical tubes and was spun at 200 g for 20 minutes. The turbid, yellow layer of platelet rich plasma (“PRP”) was withdrawn from the tubes, pooled, and set aside at room temperature. The remaining blood was spun at 2500 g for ten minutes. The clarified layer of plasma, known as platelet poor plasma (“PPP”), was withdrawn and set aside at room temperature. PRP was aliquoted into cuvettes containing stir bars at a volume of 470 uL. A sample of 500 uL of PPP was aliquoted into a cuvette and placed in the PPP reference cell of the platelet aggregometer. Samples of PRP were prewarmed at 37 degrees C. in the platelet aggregometer for 3-5 minutes before being used in BIPA assays. First, the concentration of botrocetin needed to induce platelet aggregation for each individual donor was determined by titration. This concentration of botrocetin was used for the remainder of the experiment. Next, aptamer was assayed by adding titrations of aptamer (zero, 1 nM to 1000 nM) to prewarmed PRP for one minute, followed by addition of botrocetin. With platelet aggregation, an increase in amplitude of light transmission is seen (FIG. 8). The concentration at which platelet aggregation is blocked at 90% or greater after 6 minutes is reported in the final column of Table 26.

[7] = system: vWF dependent platelet plug formation, human whole blood; assay: PFA-100 assay, human whole blood; format: cell-based; details: citrated human whole blood; minimum concentration that extends closing time to 300 seconds
From the text: Another assay of this Example, using the PFA-100 instrument, is an agonist independent but vWF dependent assay that uses the PFA-100 instrument (Harrison et al., Clin. Lab. Haem., v24, p 225-32 (2002)). The PFA-100 simulates the formation of a hemostatic plug under conditions of high shear force in vivo by recording the time required for a platelets to aggregate and block the flow of citrated whole blood through a microscopic aperture in a membrane coated with collagen and either epinephrine or ADP. This activity is von Willebrand factor dependent as high MW vWF multimers bind to immobilized collagen on the membrane and then bind to and activate platelets because of the shear force induced by drawing the blood through the microscopic aperture.
Fresh whole blood was collected from healthy non-steroidal anti-inflammatory drug (NSAID) free cynomolgus macaques. Aptamers were diluted with physiological saline from Aldon (Cat#9420306) in no-additive vacutainer tubes (Cat#366434, Becton Dickenson). Samples were loaded onto collagen/epinephrine test cartridges (Cat#B4170-20A, Dade Behring) which were used in the PFA-100 machine (Dade Behring). Trigger solution (Cat#B4170-50, Dade Behring) was used in the self-test and to pre-wet the test cartridges. O-ring cleaning pads (Cat#B4170-73, Dade Behring) were used in the self-test and in the O-ring cleaning process.
A self-test, which included an O-ring cleaning process, was always run on the PFA-100 machine before running any samples to ensure proper function of the machine.
During the entire experiment, the tubes of whole blood were gently inverted every five minutes to prevent settling.
In order to assay the titration of aptamer in whole blood, the aptamer was added to no-additive vacutainer tubes and diluted to the desired concentrations (ex: 0 nM, 1 nM to 1000 nM) using physiological saline such that the final volume was […]. When the PFA-100 was ready to run the next set of samples, 1940 μl of whole blood was added to the tube containing a concentration of aptamer. This tube was gently inverted three times to thoroughly mix the aptamer and blood. Samples were always run in duplicate on the PFA-100 machine. 800 μl of this blood mixture was loaded into the collagen/epinephrine test cartridges. The test cartridges were loaded onto the PFA-100 machine. The time of occlusion of the aperture was measured by the PFA-100, with a maximal time of 300 seconds. We estimate the IC95 in this assay to be the minimum concentration of aptamer that extends the closing time to 300 seconds.

[8] = pharmacokinetics after 3 mg/kg IV in cynomolgus macaques (Oligreen, HPLC); format: in vivo; details: cynomolgus monkey, in vivo, iv, 3 mg/kg
Experimental: ARC1368 (SEQ ID NO 291), 1779 (SEQ ID NO 320) and 1780 (SEQ ID NO 321) (as described in Example 2 above) were injected intravenously into cynomolgus macaques (n=3/group) at a dosage of 3 mg/kg which was expected to yield an instantaneous plasma concentration of 3 uM, approximately 30-fold higher than the putative effective dose. Subsequently, citrated blood samples were collected at regular intervals and processed for plasma.
Subsequently, plasma aptamer concentrations were determined using the Oligreen assay (Gray et al., Antisense and Nucleic Acid Drug Development 7 (3):133-140 (1997). The data were subsequently analyzed using the program WinNonlin to yield the pharmacokinetic parameters listed in Tables 29 to 31 below.
Following the Oligreen assay analysis, plasma aptamer concentrations were determined for the animals dosed with ARC1779 (SEQ ID NO 320) using a validated HPLC-based assay. The HPLC data were analyzed via noncompartmental and 2-compartment analysis using the program WinNonlin.

[9] = rRdY minimers, 8 point titration 0-300 nM
[10] = read-out: Inhibition of rabbit VWF A1 domain binding in FACS assay, Average IC50
[11] = read-out: Inhibition of full length hVWF binding in FACS assay, Average IC50
[12] = units in the cell: lower bound pM, upper bound nM, read-out: Inhibition of full length hVWF binding in FACS assay, IC50 range
[13] = units in the cell: lower bound pM, upper bound nM, read-out: Inhibition of rabbit VWF A1 domain binding in FACS assay, IC50 range
[14] = DNA 2 minimers, 9 point protein titration

rabbit vWF A1 domain (SEQ ID NO 6), sequence (as listed by the source): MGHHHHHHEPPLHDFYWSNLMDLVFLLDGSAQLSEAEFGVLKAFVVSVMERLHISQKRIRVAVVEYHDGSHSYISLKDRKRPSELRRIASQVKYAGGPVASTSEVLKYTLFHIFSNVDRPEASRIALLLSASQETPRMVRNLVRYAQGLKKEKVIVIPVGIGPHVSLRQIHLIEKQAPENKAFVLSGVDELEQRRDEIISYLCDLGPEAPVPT
rabbit vWF domain A1 binding to lyophilized platelets, sequence (as listed by the source): as above
human vWF A1 domain (SEQ ID NO 5), sequence (P04275 with tags, fused parts or gaps T1381A): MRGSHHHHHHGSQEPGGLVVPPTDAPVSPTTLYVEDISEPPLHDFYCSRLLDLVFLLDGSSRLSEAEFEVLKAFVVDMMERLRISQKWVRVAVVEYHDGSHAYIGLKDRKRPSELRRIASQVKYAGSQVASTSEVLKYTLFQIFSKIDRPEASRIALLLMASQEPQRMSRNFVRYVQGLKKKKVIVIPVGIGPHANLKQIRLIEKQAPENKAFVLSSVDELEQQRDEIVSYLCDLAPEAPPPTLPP

Substance: ATGAGAGTGCTGGTGGATTGCTCAGGTCTGCTGGCTGCTTACTCTCAT (DNA, backbone not given here) [ARC845, minimized DNA aptamer]
- Kd ([1]; DNA 1 minimers, competition dot blot, 10 nM protein): 10 nM
- Inhibition of rabbit VWF A1 domain binding in FACS assay, Average IC50 [2]: no activity
- Inhibition of rabbit VWF A1 domain binding in FACS assay, IC50 range ([2]; both bounds in nM): no activity
- Full length human vWF KD ([3]; DNA 1 minimers): No binding
- Kd ([4]; DNA 1 minimers): 56 nM
- Inhibition of full length hVWF binding in FACS assay, Average IC50 [5]: no activity
- Inhibition of full length hVWF binding in FACS assay, IC50 range ([5]; both bounds in nM): no activity
- ≦200 nM aptamer gives >90% blocking in BIPA at 6 minutes [6]: no activity

Substance: GGAGCCACACGACATTGGCGGGCGAGAGCCACGCATGGCTCC (rGrGrArGdCdCrAdCrAdCrGrAdCrAdTdTrGrGdCrGrGrGdCrGrArGrArGdCdCrAdCrGdCrAdTrGrGdCdTdCdC) [SEQ ID NO 192, minimized rRdY aptamer]
- Kd [1, 9]: 4 ± 1 nM
- IC50 [2, 10]: 2200 pM
- Kd [3, 9]: 2 ± 0.2 nM
- Kd [4, 9]: 8 ± 1 nM
- IC50 [5, 11]: 2600 pM
- ≦200 nM aptamer gives >90% blocking in BIPA at 6 minutes [6]: yes

Substance: GGAGCCACGGGGTGGGTAGACGGCGGGTATGTGGCTCC (rGrGrArGdCdCrAdCrGrGrGrGdTrGrGrGdTrArGrAdCrGrGdCrGrGrGdTrAdTrGdTrGrGdCdTdCdC) [SEQ ID NO 180, minimized rRdY aptamer]
- Kd [1, 9]: 11 nM
- IC50 [2, 10]: 9300 pM
- Kd [3, 9]: 1 nM
- Kd [4, 9]: 14 nM
- IC50 [5, 11]: 2000 pM
- IC50 [5, 12]: 731 to 3800 pM
- ≦200 nM aptamer gives >90% blocking in BIPA at 6 minutes [6]: yes

Substance: GGCGTGCAGTGCCTATTCTAGGCCGTGCGGTGCCTCCGTCACGCC-3T (DNA, [invdT] at 3' end, backbone not given here) [ARC 1027, minimized DNA aptamer]
- IC50 [2, 10]: 2000 pM
- IC50 [2, 13]: 462 to 4200 pM
- Kd [3, 14]: 0.8 nM
- Kd [4, 14]: 4.6 nM
- IC50 [5, 11]: 1500 pM
- IC50 [5, 12]: 208 to 4200 pM
- ≦200 nM aptamer gives >90% blocking in BIPA at 6 minutes [6]: yes

Substance: PEG20K-NH2-dGdGdCdGTdGdCdAdGTdGdCdCTTdCdGdGdCdCdGTdGdCdGdGTdGdCdCTdCdCdGTdCdAdCdGdCdC-3T (GGCGTGCAGTGCCTTCGGCCGTGCGGTGCCTCCGTCACGCC; DNA, [invdT] at 3' end, 5' {PEG20K-NH2}, backbone not given here) [ARC1885, 20 kDa PEG conjugate of ARC1172]
- ~IC95 PFA-100 (nM) with citrated human whole blood [7]: ~100 nM
- IC90 [6]: ~50 nM

Substance: PEG40K-NH2-mGmCmGmUdGdCdAmGmUmGmCmCmUmUmCmGmGmCdCmG-s-TmGdCdGdGTmGmCdCmUdCdCmGmUdCmAmCmGmC-3T [ARC1780]
- ~IC95 PFA-100 (nM) with citrated human whole blood [7]: ~100 nM
- IC90 [6]: ~100 nM
- AUCall, Mean [8]: 751.065 µg·h/mL
- AUClast, Mean [8]: 751.065 µg·h/mL
- MRTlast, Mean [8]: 10.78 h
- distribution phase [8]: prolonged distribution phase
- pharmacokinetic profile [8]: mainly monophasic

Substance: dGCGTGCAGTGCCT-[PEG]-AGGCCGTGCGGTGCCTCCGTCACGCC-3T (DNA GCGTGCAGTGCCTAGGCCGTGCGGTGCCTCCGTCACGCCT; chemistry not fully specified) [ARC1028, minimized DNA aptamer]
- IC50 [2, 10]: 1500 pM
- IC50 [2, 13]: 526 to 2700 pM
- Kd [3, 14]: 1.1 nM
- Kd [4, 14]: 3.8 nM
- IC50 [5, 11]: 1200 pM
- IC50 [5, 12]: 473 to 2700 pM
- ≦200 nM aptamer gives >90% blocking in BIPA at 6 minutes [6]: yes
